TGI and GI50 data for 30 compounds are collected here from PubChem BioAssay (NCI).

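Test compounds were applied to cells in 96-well plates for 48 hours at 5 doses. Here, GI50 denotes the concentration required for 50% inhibition of growth. TGI is the concentration that stops growth completely.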

Assay in all cases: NCI tumour cell line growth inhibition, 48 h
In test [1] the test system is SF-268 CNS.
The subject of test [2] is OVCAR-8 ovarian.
Test [3] relates to HCT-15 colon.
In test [4] the test system is EKVX NSCLC.
Test [5] deals with U251 CNS.
The test system of test [6] is 786-0 renal.
Test [7] has as its system NCI-H23 lung.
Test [8] deals with NCI-H460 lung.
Test [9] deals with A498 renal.

Regarding `O=C(N/C(=C\c1ccc([N+](=O)[O-])cc1)c1nc2ccc(Cl)cc2[nH]1)c1ccccc1`, the TGI in test [1] is 42.8 µM; in test [2] it was greater than 100 µM; in [3], 31.2 µM; in test [4], 74.6 µM; in test [5], 34.9 µM; in test [6], 53 µM. The same compound registered a TGI in test [7] of 44.6 µM.
As for `CC(C(=O)c1ccccc1)C1(O)C(=O)Nc2ccccc21` (stereo unspecified), the TGI in test [1], in [8], in [3], in test [4], in test [5] and in [9] was greater than 100 µM in each case. Also, the TGI in test [6] and in [7] was greater than 100 µM in each case.
`O=S1c2ccccc2N=C(c2ccc(Cl)cc2)CC1c1cccs1` (stereo unspecified): the TGI in [1] is greater than 100 µM; in [8] it was greater than 100 µM; in test [2] it was 38.4 µM; in test [3] it was 29.1 µM; in test [4], greater than 100 µM; in [5], 28.9 µM. Further, the values for the TGI in [9], in [6] and in test [7] were greater than 100 µM, 28.2 µM and 85.3 µM, respectively.
As to `S=P(c1ccccc1)(c1ccccc1)C1(C2(P(=S)(c3ccccc3)c3ccccc3)CC2)CC1`, the TGI in test [1], in [8], in test [2], in [3], in test [4] and in [5] was greater than 100 µM in each case. Moreover, the TGI in [6] and in test [7] was greater than 100 µM in each case.
On to `CC(Oc1ccc(OCC2CCCCC2)cc1)C(=O)O` (stereo unspecified), for which the TGI in [1], in [8], in test [2], in [3], in test [5] and in test [6] was greater than 100 µM each time. This compound displayed a TGI in test [7] greater than 100 µM.
As for `C[C@]12CC(C#N)C(=O)C(O)=C1CC[C@@H]1C2CC[C@@]2(C)C1CC[C@@H]2O` (stereo partly specified), the TGI in test [1], in test [8], in test [2], in test [3], in test [4] and in [5] was greater than 100 µM each time. Besides, the TGI in test [9] was 28.9 µM; in test [6], greater than 100 µM; in test [7], greater than 100 µM.
For the compound `COc1cc2ccc(/C(C)=N/OC(C)=O)cc2cc1OC`, the TGI in test [1], in test [8], in test [2], in test [3], in test [4] and in test [5] was greater than 100 µM throughout. The TGI in test [9] was 76.9 µM; in test [6] it was greater than 100 µM; in test [7], greater than 100 µM.
For the compound `CCN(CC)CCOC(=O)/C(=C/c1ccc(OC)cc1)c1cc(OC)c(OC)c(OC)c1`, the TGI in test [1] is greater than 100 µM; in test [8] it was 51.2 µM; in test [2], 74.2 µM; in [3] it was greater than 100 µM; in test [4], greater than 100 µM; in test [5], 25.5 µM. In addition, the TGI was determined as 8.64 µM in [9] and 98.8 µM in test [6].
In the case of `c1ccc2c(c1)nnn2CNc1ccc(N2CCOCC2)cc1`, the TGI in test [1], in [8], in [2], in test [3], in test [4] and in [5] was greater than 100 µM in each case. Also, the TGI in test [9], in test [6] and in [7] was greater than 100 µM in each case.
With `NCCCn1c2c(c3cc4c(cc3c1=O)OCO4)C(=O)c1ccccc1-2`, the GI50 in test [1] is 3.75 µM; in test [8], 2.06 µM; in [2], 0.142 µM; in [3], 0.554 µM; in [4] it was 0.842 µM; in test [5] it was 0.321 µM. For the same compound, the figures for the GI50 in [6] and in test [7] were 1.49 µM and 0.564 µM, respectively. Moreover, the TGI in test [1] was found to be 16.5 µM; in test [8], 4.11 µM; in test [2] it was 1.14 µM; in [3], 1.94 µM; in test [4], 2.55 µM; in test [5] it was 0.753 µM. The TGI in [6] was determined as 2.88 µM; in test [7] it was 2.09 µM.
With `CCCC1C(=O)C(CC)Cc2c(OC)ccc(OC)c21` (stereo unspecified), the TGI in test [1], in test [8], in [2], in [3], in [4] and in [5] was greater than 100 µM each time. The same compound yielded a TGI in [6] greater than 100 µM.
Take `NC1=NC(c2ccccc2)CC(c2cc(Cl)cc(Br)c2O)=N1` (stereo unspecified): the TGI in [1] stood at 26.9 µM; in test [8], 19.9 µM; in [2], 38.5 µM; in test [3], 31.1 µM; in test [4], 28.2 µM; in test [5] it was 26.4 µM. The figures for the TGI in test [9], in test [6] and in [7] were 35.7 µM, 31.5 µM and 26 µM, respectively.
For the compound `COc1cc2ccnc3c2c(c1OC)CC1CC(O)C(OC)CC31` (stereo unspecified), the TGI in [8] is greater than 100 µM; in test [2], greater than 100 µM; in [3], greater than 100 µM; in test [4] it was 88.6 µM; in test [5], greater than 100 µM; in [6] it was greater than 100 µM. This compound also gave a TGI in [7] greater than 100 µM.
Turning to `CC1Cc2c(N)nc(N3CCOCC3)nc2NC1=O` (stereo unspecified), the TGI in test [8], in test [2], in test [3], in [4], in test [5] and in test [6] was greater than 100 µM in each case. The TGI in [7] was greater than 100 µM.
`C=CCCC(C)N(C(=O)OC(C)(C)C)S(=O)(=O)c1ccc(C)cc1` (stereo unspecified): the TGI in test [1], in test [8], in test [2], in test [3], in test [5] and in [6] was greater than 100 µM throughout. Further, the TGI in [7] was greater than 100 µM.
As to `C/C(=N\NS(=O)(=O)c1ccc(C)cc1)c1c(O)cc(C)oc1=O`, the TGI in test [1], in [8], in [2], in test [3], in test [4] and in test [5] was greater than 100 µM in each case. Further, the TGI in test [9], in [6] and in test [7] was greater than 100 µM throughout.
For the compound `CCOC(=O)CNC1C(NC(C)=O)C(OC)OC2COC(c3ccccc3)OC21` (stereo unspecified), the TGI in test [1], in test [8], in [2], in test [3], in test [4] and in [5] was greater than 100 µM in each case. Further, the TGI in [9], in test [6] and in [7] was greater than 100 µM throughout.
Turning to `CC1=C(/C=C/C2=CC(=C\C(=O)O)/CC(C3=C(C)CCCC3(C)C)C2)C(C)(C)CCC1` (stereo unspecified), the TGI in test [1] is 36.1 µM; in [8] it was 27.8 µM; in test [2], 27.8 µM; in [4], 23.4 µM; in [5] it was 23.1 µM; in [9], 28.7 µM. For the same compound, the TGI in test [6] came out at 28.4 µM; in [7] it was 27.6 µM.
As to `CC(=O)O[C@H]1CCC2[C@@H]3CCC4Nc5c(cnn5-c5ccccc5)C[C@]4(C)C3CC[C@@]21C` (stereo partly specified), the TGI is greater than 100 µM in test [1]; 42.1 µM in [8]; 39.6 µM in test [2]; 47.8 µM in test [3]; 16.5 µM in test [4]; 91.5 µM in [5]. The TGI in test [9] is greater than 100 µM; in [6] it was 67.5 µM; in [7] it was 21.2 µM.
For `CCCCCCCC(=O)OCC1OC(n2cc(F)c(=O)[nH]c2=O)C(NC(=O)OCc2ccccc2)C(OC(=O)CCCCCCC)C1O` (stereo unspecified), the TGI in test [1] was greater than 100 µM; in [8], greater than 100 µM; in [2], greater than 100 µM; in [3], greater than 100 µM; in test [4], greater than 100 µM; in test [5] it was 60.9 µM. Further, the figures for the TGI in test [9], in test [6] and in [7] were greater than 100 µM, 65.1 µM and greater than 100 µM, respectively.
On to `CCOC(=O)/C(C#N)=C\C=C1/C=CNC2=NCCN21`, for which the TGI in test [1], in [8], in test [2], in test [3], in test [4] and in test [5] was greater than 100 µM throughout. The TGI in test [6] and in test [7] was greater than 100 µM in each case.
Consider `N#Cc1nn(C2OC(COC(=O)c3ccccc3)C(OC(=O)c3ccccc3)C2OC(=O)c2ccccc2)c2nc[nH]c(=O)c12` (stereo unspecified), for which the TGI in test [1], in [8], in [2], in [3], in test [4] and in test [5] was greater than 100 µM each time. Also, the TGI in [9] is 47.2 µM; in test [6], greater than 100 µM; in [7], greater than 100 µM.
Take `CCC(O)(c1ccc(OC)cc1)C(c1ccc(OCc2ccccc2)cc1)c1ccc(OCc2ccccc2)cc1` (stereo unspecified): the TGI in test [1], in test [8], in test [2], in test [3], in [4] and in test [5] was greater than 100 µM each time. In addition, the TGI in test [9], in test [6] and in test [7] was greater than 100 µM in each case.
With `O=C1NC(=O)C(=O)C(c2nc3ccccc3s2)C1=O`, the TGI in test [1], in test [8], in [2], in test [3], in test [4] and in test [5] was greater than 100 µM throughout. Further, the TGI in [9], in [6] and in test [7] was greater than 100 µM throughout.
Take `O=C(c1cc2c(C(F)(F)F)onc2c2ccccc12)C(F)(F)F`: the TGI in test [1] is 19.9 µM; in test [8] it was 7.17 µM; in test [2], 7.66 µM; in test [3] it was greater than 29 µM; in test [4], greater than 33.3 µM; in [5], 4.76 µM. Moreover, the values for the TGI in test [9], in test [6] and in test [7] were 34.9 µM, greater than 45.1 µM and 4.25 µM, respectively.
For the compound `Cc1ccc(NC(=O)CC/C(CC(=O)c2ccc(Cl)cc2)=N\NC(=O)C(=O)NN)cc1C`, the TGI in test [1], in [8], in test [2], in test [3], in test [4] and in test [5] was greater than 100 µM throughout. The TGI in test [9], in test [6] and in test [7] was greater than 100 µM each time.
Consider `N#CC(C(=O)CCC(=O)Nc1ccc(Cl)cc1)c1ccccc1Cl` (stereo unspecified), for which the TGI in [1], in [8], in test [2], in test [3], in test [4] and in test [5] was greater than 100 µM throughout. For the same compound, the TGI in [9], in test [6] and in test [7] was greater than 100 µM each time.
With `CC([C@H]1CCC2C3CCC4CC5(CC[C@]4(C)C3CC[C@@]21C)c1ccccc1C(=O)N5C)N(C)C` (stereo partly specified), the TGI in [1], in [8], in [2], in test [3], in [5] and in test [9] was greater than 100 µM throughout. Moreover, the TGI in test [6] is 29.8 µM; in test [7], greater than 100 µM.
For `NNC(=O)CCC(=O)Nc1ccc(Cl)cc1Cl`, the TGI in test [1], in [8], in test [2], in test [3], in [5] and in test [9] was greater than 100 µM each time. The TGI in [6] and in test [7] was greater than 100 µM in each case.
As for `O=C(COc1ccc(Cl)cc1)N1N=C(c2ccc([N+](=O)[O-])o2)CC1(O)c1ccccc1` (stereo unspecified), the TGI in test [1] turned out to be 33.4 µM; in [8], 23.1 µM; in [2], 23.6 µM; in test [3], 18.5 µM; in [5], 15.5 µM; in test [6] it was 20.7 µM. Besides, the TGI in test [7] came out at 6.73 µM.
